The results in this text go back to ChEMBL document CHEMBL1145120, “Molecular modeling of the three-dimensional structure of dopamine 3 (D3) subtype receptor: discovery of novel and potent D3 ligands through a hybrid pharmacophore- and structure-based database searching approach” (J Med Chem, 2003).

The structures appear in SMILES notation.

T1 sequence (P35462 whole entry): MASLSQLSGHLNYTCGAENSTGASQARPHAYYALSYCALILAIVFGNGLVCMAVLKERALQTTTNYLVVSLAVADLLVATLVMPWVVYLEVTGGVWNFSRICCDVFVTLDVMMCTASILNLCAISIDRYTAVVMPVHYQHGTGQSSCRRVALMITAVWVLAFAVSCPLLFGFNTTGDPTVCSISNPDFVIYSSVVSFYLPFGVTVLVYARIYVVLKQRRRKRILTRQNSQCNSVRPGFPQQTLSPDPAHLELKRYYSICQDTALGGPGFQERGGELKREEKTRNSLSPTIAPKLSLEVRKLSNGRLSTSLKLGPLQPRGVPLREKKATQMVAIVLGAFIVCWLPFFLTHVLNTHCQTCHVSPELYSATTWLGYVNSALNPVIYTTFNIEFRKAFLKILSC

The first assay has as its target T1, D(3) dopamine receptor (Homo sapiens, UniProt P35462).
Assay: not given
As to `O=C(OC1(c2nccc3ccccc23)CCN(CCc2ccccc2)CC1)c1ccccc1`, the Ki (as a rule, a dissociation constant, usually derived from enzyme kinetics or from competition with a known ligand) worked out at 1000 nM.

As for `CCC(=O)OC1(c2ccccc2)CCN(CCC(=O)c2ccccc2)CC1C` (centres undefined), the affinity corresponds to a Ki of 10000 nM.

For `CCCCN(CC)CC(C(C)=O)C1=C(O)OC2C=CC=CC2C1=O` (centres undefined), the Ki was 10000 nM. That is a double-digit micromolar value.

`c1ccc2c3c([nH]c2c1)CCN1CCN(CCc2ccncc2)CC31` (centres undefined) had a Ki of 10000 nM.

In the case of `CCn1c2ccccc2c2cc(NCCCN(C)C)ccc21`, affinity was put at a Ki of 10000 nM.

In turn, `CCCN(CCC)CN1C(=O)c2ccccc2C1=O` showed a Ki of 10000 nM. In other words, the double-digit micromolar range.

For `CCCCN1CN(CCCC)CN(C(=S)c2c(Cl)cccc2Cl)C1`, the Ki turned out to be 10000 nM.

In turn, `Cc1ccc(C)c2c1Sc1c(ccc3ccccc13)N2CCCN(C)C` returned a Ki of 442 nM.

For `CCC(=O)OC1(c2ccccc2)CCN(CCCC(=O)c2ccccc2)CC1`, the Ki stood at 429 nM.

In turn, `CCCCN1CSC(=S)N(Cc2ccccc2)C1` came in with a Ki of 10000 nM. Against the preceding molecule, the Ki is about 23-fold higher.

Take `O=C(CCCCN1CCN2c3ccccc3CCC2C1)c1ccccc1` (centres undefined): the Ki was 297 nM.

Molecule `CCCN(CCC)CCC(O)c1cc2c(c3ccccc13)CCCC2` (centres undefined) registered a Ki of 1260 nM.

For `CCOc1ccc(NC(=O)C2CCCN(CCc3ccccc3)C2)cc1` (centres undefined), the affinity corresponds to a Ki of 10000 nM.

On to `CCCCN(CCCC)Cc1c(C)nc2cc(OC)ccc2c1O`, for which the Ki was 10000 nM.

As to `CCCCCN1CCN(C(CC(=O)c2ccccc2)C(=O)c2ccccc2)CC1` (centres undefined), the Ki was 10000 nM.

Turning to `OC(CCCN1CCN2CCc3[nH]c4ccccc4c3C2C1)c1ccc(F)cc1` (centres undefined), affinity was put at a Ki of 2410 nM. This Ki lies about 4.1-fold lower than the previous one.

On to `CCCCN1C/C(=C\c2ccc(Br)cc2)C(=O)/C(=C/c2ccc(Br)cc2)C1`, for which the Ki amounted to 1000 nM.

Molecule `O=C(CCCN1CCN2c3ccccc3CCC2C1)c1ccc(F)cc1` (centres undefined) had a Ki of 83.5 nM.

Molecule `Cc1ccc2c(c1)Sc1c(ccc3ccccc13)N2CCCN(C)C` gave a Ki of 1420 nM.

In turn, `N#CCCN(CCCN1CCOCC1)CN1C(=O)c2ccccc2C1=O` came in with a Ki of 10000 nM.

`O=C(CCN1CCN2c3ccccc3CCC2C1)c1ccc(F)cc1` (centres undefined) gave a Ki of 465 nM.

Regarding `CCN(CC)CCCN(C)Cc1c(-c2ccccc2)oc(-c2ccccc2)c1Cl`, the Ki was 1380 nM.

Molecule `CCCCCCCN1CCC(C(=O)CC)(c2cccc(O)c2)CC1` gave a Ki of 2610 nM.

With `CC(=O)NCC1(c2ccccc2)CCN(CCCC(=O)c2ccc(F)cc2)CC1` [ACEPERONE], the Ki was determined as 10000 nM.

`CN(C)C(=O)C1(c2ccc(Cl)cc2)CCN(CCCC(=O)c2ccc(F)cc2)CC1` [AMIPERONE] returned an inhibitory constant (Ki) of 43.2 nM.

For the molecule `O=C(CCCN1CCN2Cc3[nH]c4ccccc4c3CC2C1)c1ccc(F)cc1` (centres undefined) [BIRIPERONE], the Ki came out at 11 nM.

The molecule `O=c1[nH]c2ccccc2n1CCCN1CCN(C(c2ccccc2)c2ccccc2)CC1` [OXATOMIDE] showed a Ki of 62.7 nM.

Another assay concerns the target T1, D(3) dopamine receptor.
Assay: not given
The source holds these as a separate data set.
Regarding `CCCCN1CCCC1CNC(=O)c1cc(C#N)c2ccccc2c1OC` (centres undefined) [NAFADOTRIDE], the affinity corresponds to a Ki of 0.81 nM.

In a further assay the target is T1, D(3) dopamine receptor. Description: biochemical.
Turning to `CCCN(CCC)C1CCc2cc3c(cc2C1)OCC3` (centres undefined), the Ki is 13 nM. This lies in the double-digit nanomolar range.

With `CCCN[C@@H]1CCc2c(OC)cccc2[C@@H]1C`, the Ki is 70 nM.

For `OC1(c2ccc(Cl)cc2)CCN(Cc2c[nH]c3ccccc23)CC1`, affinity was put at a Ki of 60 nM.

As for `CCN(CC)CCNC(=O)c1cc(Cl)c(N)cc1OC` [METOCLOPRAMIDE], the Ki stood at 27 nM.

Another assay deals with T1, D(3) dopamine receptor. The assay can be described thus: Compound was measured for its ability to compete with [3H]spiperone binding to the human Dopamine receptor D3 transfected in CHO cells. It counts as cell-based.
Consider `CCCN1CCOC2c3cc(O)ccc3OC[C@H]21` (some centres undefined), for which the affinity corresponds to a Ki of 1.1 nM.

`CCN1CCC[C@H]1CNC(=O)c1c(O)c(Cl)cc(Cl)c1OC` [RACLOPRIDE] had a Ki of 3.7 nM.
